Results reported in patent US20230067194A1, “METHOD FOR TREATMENT OF ACQUIRED COGNITIVE DEFICITS” (CORNELL UNIVERSITY, priority 2020, published 2023).
Entries after “also recorded” stand apart in the source; their conditions may differ.

Experiments:
[1] = cited from earlier work
SBI mice = assay: Sleep-wake cycle LFP power spectra in secondary-blast injury (SBI) mice with sodium oxybate injection; format: in vivo
Procedure: FIGS. 7A-7B. Effects of sodium oxybate injection on the sleep-wake cycle of SBI mice. The top panels display the delta power during the dark (blue; daytime) and light (yellow; sleep time) within 24 hours in (A) Non-REM, or (B) Wake mice. The pink vertical lines represent the time in which animals received an intraperitoneal injection of sodium oxybate (SO; 400 mg/Kg) diluted in saline. The bottom panels show the LFP power spectra obtained from sleep periods and wake periods with and without sodium oxybate. In (A), the dark blue line represents NREM sleep without sodium oxybate administration and the red line represents NREM sleep with sodium oxybate administration. In (B), the dark blue line represents Wake without sodium oxybate administration during prior sleep and the red line represents Wake with sodium oxybate administration during prior sleep. Application of sodium oxybate during the night results in elevation of delta (1-5 Hz) LFP power and increases during the subsequent wakeful period in beta (15-30 Hz) and gamma (>30 Hz) LFP. Importantly, consistent with our theory because of the short half-life of sodium oxybate these changes in wakeful LFP power reflect alteration of cortical neuronal properties linked to the increased delta during sleep induced by sodium oxybate.
The inventors inflicted a secondary-blast injury (SBI) to mice targeting the anterior forebrain mesocircuit, which corresponds to the frontal/prefrontalcortical-pallidal thalamocortical loop systems.
The inventors examined animals' sleep-wake cycle before, after the SBI, and while injecting sodium oxybate (400 mg/Kg; FIG. 7A-7B). Local field potentials (LFPs) were recorded from the frontal area and neck-EMG activity to detect and extract the different sleep/wake cycle components—Non-REM, REM, and Wake state. The inventors examined the whole range of biological LFP frequencies before and after sodium oxybate injection by calculating power spectral density using Thomson's multi-taper method implemented using the Chronux tool box from MATLAB.

[2] = FIG. 7 legend, intraperitoneal 400 mg/Kg during prior sleep
[3] = wake state post-sodium oxybate injection (400 mg/Kg), 400 mg/kg

SMILES: O=C(O)CCCO [sodium oxybate]
- SWS (slow wave sleep) ([1]; dose-dependent): dose-dependent upregulation
- alpha-delta sleep ([1]; in several conditions): suppress alpha-delta sleep
- beta (15-30 Hz) LFP power during the subsequent wakeful period (SBI mice; [2]): increases
- gamma (>30 Hz) LFP power during the subsequent wakeful period (SBI mice; [2]): increases
- delta (1-5 Hz) LFP power (SBI mice; FIG. 7 legend, intraperitoneal 400 mg/Kg in saline, application during the night, NREM sleep): elevation
- delta oscillations (1-4 Hz) LFP power in Non-REM (SBI mice; sodium oxybate 400 mg/Kg injected right before the sleep time (9 pm), frontal LFP): increase; also recorded: elevation
- beta (20-40 Hz) LFP power during the wake state (SBI mice; [3]): higher; also recorded: increases
- gamma (>40 Hz) LFP power during the wake state (SBI mice; [3]): higher; also recorded: increases
- persistence of the elevation of delta power during the wakeful period (SBI mice; wakeful period after night application of sodium oxybate): does not persist
